Assay results reported in paper PMC5642506 (Oncotarget, 2017).
Like-named read-outs stand apart in the source and are kept apart here.

Assays:
[1] = system: pretreated nonsquamous lung cancer; set-up: method as in PMID 27697581; details: cited from earlier work
[2] = Dose escalation: DLT and recommended phase II dose; set-up: species or system human (patients); details: human, in vivo
Description: (§1) In this dose-finding phase I trial, escalating doses of foretinib were added to standard dose erlotinib as continuous daily dosing. Patients were permitted to remain on study treatment until the development of disease progression, unacceptable toxicity or withdrawal of consent. To facilitate pharmacokinetic studies and ensure tolerability of standard therapy, patients received erlotinib alone daily for 14 days during cycle 1, and foretinib was initiated on day 15, cycle 1 if erlotinib was well tolerated. Daily dosing for both agents thereafter was continuous.
Toxicity was evaluated continuously according to the Common Terminology Criteria for Adverse Events (CTCAE), Version 4.0. […] If 1/3 experienced DLT, at least 3 additional patients were treated for a total of 6 evaluable patients treated at that dose level. If 2/3 or 2/6 patients experienced DLT, dose escalation was to be stopped and that dose declared the maximum tolerated dose (MTD), with the next lower dose to be declared the recommended phase II dose for foretinib in combination with erlotinib. While designed as a 3+3 dose escalation study, 3+4 was allowed to ensure that there would be a minimum of 3 evaluable patients without having to reopen a cohort to replace a patient. Intra-patient dose escalation was not allowed. […]

[3] = Treatment delivery, dose intensity, discontinuation; assay type: in vivo, human (patients)
Description: as §1

[4] = Pharmacokinetic analyses (plasma, non-compartmental); assay type: in vivo, human (patients)
Description: Patients underwent history and physical examination, performance status, measurement of vital signs, routine hematology and biochemistry studies, thyroid studies and tumor imaging with computed tomography scans at baseline. Blood pressure monitoring and bloodwork was repeated weekly during cycle 1 and then on day 1 of each subsequent cycle. Patients were assessed on day 1 of each subsequent cycle and as needed for toxicity management. Tumor assessment with imaging was performed at every second cycle (8 weeks). Urinalysis was performed on day 1 of each cycle, ophthalmologic examination every 12 weeks, and pharmacokinetic sampling on day 14 and 28 of cycle 1.
Patients were required not to smoke or chew tobacco products for at least 14 days prior to study entry, and to abstain at least until the completion of pharmacokinetic sampling on day 28 of cycle 1.

[5] = system: pretreated EGFR wild type NSCLC; set-up: method as in PMID 27825638; details: cited from earlier work
[6] = system: EGFR mutant lung cancer cells with upregulated HGF and increased MET copy number; set-up: method as in earlier work; details: preclinical studies; cited from earlier work
[7] = Erlotinib D14, DL1 erlotinib 100 mg daily alone, N=6
[8] = Erlotinib D14, DL2 erlotinib 150 mg daily alone, N=9
[9] = Erlotinib D14, DL3 erlotinib 150 mg daily alone, N=7
[10] = Erlotinib D28, DL1 erlotinib 100 mg + foretinib 30 mg daily, N=7
[11] = Erlotinib D28, DL2 erlotinib 150 mg + foretinib 30 mg daily, N=11
[12] = Erlotinib D28, DL3 erlotinib 150 mg + foretinib 45 mg daily, N=6
[13] = human, plasma, oral, 100 mg, Erlotinib D14, DL1 erlotinib 100 mg daily alone, N=6
[14] = human, plasma, oral, 150 mg, Erlotinib D14, DL2 erlotinib 150 mg daily alone, N=9
[15] = human, plasma, oral, 150 mg, Erlotinib D14, DL3 erlotinib 150 mg daily alone, N=7
[16] = human, plasma, oral, Erlotinib D28, DL1 erlotinib 100 mg + foretinib 30 mg daily, N=7
[17] = human, plasma, oral, Erlotinib D28, DL2 erlotinib 150 mg + foretinib 30 mg daily, N=11
[18] = human, plasma, oral, Erlotinib D28, DL3 erlotinib 150 mg + foretinib 45 mg daily, N=6
[19] = Foretinib D28, DL1 foretinib 30 mg + erlotinib 100 mg daily, N=7
[20] = Foretinib D28, DL2 foretinib 30 mg + erlotinib 150 mg daily, N=11
[21] = Foretinib D28, DL3 foretinib 45 mg + erlotinib 150 mg daily, N=6
[22] = human, plasma, oral, Foretinib D28, DL1 foretinib 30 mg + erlotinib 100 mg daily, N=7
[23] = human, plasma, oral, Foretinib D28, DL2 foretinib 30 mg + erlotinib 150 mg daily, N=11
[24] = human, plasma, oral, Foretinib D28, DL3 foretinib 45 mg + erlotinib 150 mg daily, N=6

## C[C@@H](Oc1cc(-c2cnn(C3CCNCC3)c2)cnc1N)c1c(Cl)ccc(F)c1Cl [crizotinib]
[1]; BID, plus erlotinib 100 mg daily
  RP2D, crizotinib: 150 mg

## C#Cc1cccc(Nc2ncnc3cc(OCCOC)c(OCCOC)cc23)c1 [erlotinib]
[2]
  recommended phase II dose, erlotinib: 150 mg
[3]; DL1 (N=9), 30/100 mg
  % receiving >=90% planned dose intensity, Erlotinib: 78%
[3]; DL2 (n=15), 30/150 mg
  % receiving >=90% planned dose intensity, Erlotinib: 40%
[3]; DL3 (N=7), 45/150 mg
  % receiving >=90% planned dose intensity, Erlotinib: 43%
[4]; [7]
  Cavg: 1254 (SD 622) ng/mL
  Clast: 1106 (SD 710) ng/mL
  Cmax: 1719 (SD 624) ng/mL
  Cmax Dose Norm: 17.2 (SD 6.24) ng/mL/mg
  Cmin: 815 (SD 641) ng/mL
  Tmin: 4.17 (SD 9.71) hr
[4]; [8]
  Cavg: 1466 (SD 507) ng/mL
  Clast: 1137 (SD 419) ng/mL
  Cmax: 2335 (SD 770) ng/mL
  Cmax Dose Norm: 15.6 (SD 5.13) ng/mL/mg
  Cmin: 1047 (SD 437) ng/mL
  Tmin: 13.33 (SD 12.65) hr
[4]; [9]
  Cavg: 1548 (SD 621) ng/mL
  Clast: 1247 (SD 565) ng/mL
  Cmax Dose Norm: 14.91 (SD 4.14) ng/mL/mg
  Cmin: 1027 (SD 507) ng/mL
  Tmin: 4.71 (SD 8.77) hr
[4]; [10]
  Cavg: 1497 (SD 975) ng/mL
  Clast: 1300 (SD 861.44) ng/mL
  Cmax: 2387 (SD 1707) ng/mL
  Cmax Dose Norm: 23.87 (SD 17.07) ng/mL/mg
  Cmin: 1092 (SD 894) ng/mL
  Tmin: 11.2 (SD 12.07) hr
[4]; [11]
  Cavg: 1579 (SD 643) ng/mL
  Clast: 1343 (SD 687) ng/mL
  Cmax Dose Norm: 17.64 (SD 6.49) ng/mL/mg
  Cmin: 1293 (SD 688) ng/mL
  Tmin: 13.27 (SD 12.34) hr
[4]; [12]
  AUCt: 40765 (SD 16673) ng*hr/mL
  Cavg: 1699 (SD 695) ng/mL
  Clast: 1283 (SD 697) ng/mL
  Cmax Dose Norm: 16.48 (SD 4.78) ng/mL/mg
  Cmin: 1244 (SD 725) ng/mL
  Tmin: 16.17 (SD 12.14) hr
[4]; [13]
  AUC(0-t): 30100 ng·h/mL
  Tmax: 7.67 h
  clearance: 28.6 mL/min
[4]; [14]
  AUC(0-t): 35200 ng·h/mL
  Tmax: 2.22 h
  clearance: 85.4 mL/min
[4]; [15]
  AUC(0-t): 35500 ng·h/mL
  Tmax: 3.86 h
  clearance: 79.9 mL/min
[4]; human, plasma, oral, 150 mg, Erlotinib D14, DL3 erlotinib 150 mg daily alone, N=7, read-out: Cmax
  Cmax: 2240 ng/mL
[4]; [16]
  AUC(0-t): 35900 ng·h/mL
  Tmax: 2.29 h
  clearance: 33.9 mL/min
[4]; [17]
  AUC(0-t): 36200 ng·h/mL
  Tmax: 2.64 h
  clearance: 76.1 mL/min
[4]; [18]
  Tmax: 2.33 h
  clearance: 76.2 mL/min
[4]; human, plasma, oral, Erlotinib D28, DL3 erlotinib 150 mg + foretinib 45 mg daily, N=6, read-out: Cmax
  Cmax: 2470 ng/mL
[1]; daily, plus crizotinib 150 mg BID
  RP2D, erlotinib: 100 mg
[1]; with crizotinib
  erlotinib exposure, pharmacokinetic interaction: increased erlotinib exposure
[5]
  PFS: 1.8 months

## COc1cc2c(Oc3ccc(NC(=O)C4(C(=O)Nc5ccc(F)cc5)CC4)cc3F)ccnc2cc1OCCCN1CCOCC1 [foretinib]
[2]
  recommended phase II dose, foretinib: 30 mg
[3]; DL1 (N=9), 30/100 mg
  % receiving >=90% planned dose intensity, Foretinib Cycle 1: 100%
  % receiving >=90% planned dose intensity, Foretinib Cycle >= 2: 50%
[3]; DL2 (n=15), 30/150 mg
  % receiving >=90% planned dose intensity, Foretinib Cycle 1: 67%
  % receiving >=90% planned dose intensity, Foretinib Cycle >= 2: 31%
[3]; DL3 (N=7), 45/150 mg
  % receiving >=90% planned dose intensity, Foretinib Cycle 1: 86%
  % receiving >=90% planned dose intensity, Foretinib Cycle >= 2: 0
[4]; [19]
  Cavg: 30.35 (SD 9.23) ng/mL
  Clast: 27.29 (SD 10.66) ng/mL
  Cmax Dose Norm: 1.45 (SD 0.59) ng/mL/mg
  Cmin: 22.79 (SD 7.74) ng/mL
  Tmin: 12.29 (SD 11.34) hr
[4]; [20]
  Cavg: 29.17 (SD 13.58) ng/mL
  Clast: 24.12 (SD 9.34) ng/mL
  Cmax Dose Norm: 1.49 (SD 0.74) ng/mL/mg
  Cmin: 22.47 (SD 10.61) ng/mL
  Tmin: 13.36 (SD 12.23) hr
[4]; [21]
  Cavg: 42.07 (SD 17.31) ng/mL
  Clast: 34.22 (SD 17.3) ng/mL
  Cmax Dose Norm: 1.21 (SD 0.4) ng/mL/mg
  Cmin: 31.96 (SD 18.16) ng/mL
  Tmin: 12.0 (SD 13.15) hr
[4]; [22]
  AUC(0-t): 728 ng·h/mL
  Tmax: 3.14 h
  clearance: 419 mL/min
[4]; human, plasma, oral, Foretinib D28, DL1 foretinib 30 mg + erlotinib 100 mg daily, N=7, read-out: Cmax
  Cmax: 43.4 ng/mL
[4]; [23]
  AUC(0-t): 681 ng·h/mL
  Tmax: 3.55 h
  clearance: 492 mL/min
[4]; human, plasma, oral, Foretinib D28, DL2 foretinib 30 mg + erlotinib 150 mg daily, N=11, read-out: Cmax
  Cmax: 44.8 ng/mL
[4]; [24]
  AUC(0-t): 1010 ng·h/mL
  Tmax: 3.5 h
  clearance: 829 mL/min
[4]; human, plasma, oral, Foretinib D28, DL3 foretinib 45 mg + erlotinib 150 mg daily, N=6, read-out: Cmax
  Cmax: 55.9 ng/mL
[6]
  sensitivity when added to erlotinib: significantly increases sensitivity
